This is an account of results in ChEMBL document CHEMBL1142514, “Improved synthesis of 6-epi-dictyostatin and antitumor efficacy in mice bearing MDA-MB231 human breast cancer xenografts” (2008).

Common to all, as to format: functional
Assay [1] deals with MDA-MB-231. In words: Antitumor activity against human MDA-MB-231 cells xenografted in CB17 SCID mouse assessed as one tumor doubling time administered at 20 mg/kg, iv q7d in 3 schedule. (In general: A xenograft is tissue or cells of one species grown in another, often human tumour cells in immunodeficient mice.)
Assay [2] has as its system MDA-MB-231. Put plainly: Antitumor activity against human MDA-MB-231 cells xenografted in CB17 SCID mouse assessed as ratio of median tumor volume for drug to control administered at 20 mg/kg, iv q7d in 3 schedule after 14 days.
Assay [3] concerns MDA-MB-231. In words: Antitumor activity against human MDA-MB-231 cells xenografted in CB17 SCID mouse assessed as ratio of median tumor volume for drug to vehicle administered at 20 mg/kg, iv q7d in 3 schedule after 17 days.
In assay [4] the test system is MDA-MB-231. Put plainly: Antitumor activity against human MDA-MB-231 cells xenografted in CB17 SCID mouse assessed as two tumor doubling time administered at 20 mg/kg, iv q7d in 3 schedule.

For orientation: T/C means the ratio of treated to control. Regarding `CC(=O)O[C@H]1C(=O)[C@@]2(C)[C@H]([C@H](OC(=O)c3ccccc3)[C@]3(O)C[C@H](OC(=O)[C@H](O)[C@@H](NC(=O)c4ccccc4)c4ccccc4)C(C)=C1C3(C)C)[C@]1(OC(C)=O)CO[C@@H]1C[C@@H]2O` [PACLITAXEL], the Activity in assay [1] was found to be 7.9 days; in assay [3], 31%; in assay [4], 19 days. In assay [2], the T/C came to 33%.
